Laboratory results: patent US6592899B2, “PLA/PLGA oligomers combined with block copolymers for enhancing solubility of a drug in water” (Macromed Incorporated, priority 2001, dated 2003)
≈ marks a conversion by molar mass, not a printed value.

Experiments:
[1] = cited from earlier work
[2] = Amphotericin B solubility in triblock copolymer solution with or without PLA oligomers (dialysis preparation); format: physicochemical
Procedure: The mixture was added to dialysis tubing with a 3500 Dalton molecular weight cutoff and dialyzed against reverse osmosis deionized water (pH=2) overnight. The dialysate was then exchanged for reverse osmosis deionized water and dialyzed overnight. The reported solubility of amphotericin B in water is 3 μg/mL. […] The maximum concentration of amphotericin B in the mixture of PLA oligomers and the triblock copolymer was improved greater then 10 fold than that in the triblock copolymer alone.

[3] = Solution stability of paclitaxel in Me-PEG-PLGA diblock copolymer with or without PLA oligomer; format: physicochemical; settings: 40 mg paclitaxel, 2 mL water
Procedure: The PLA oligomers prepared in Example 4 (75 mg) were added to 600 mg of Me-PEG-PLGA diblock copolymer prepared in Example 9, 40 mg of paclitaxel, and 2 mL of reverse osmosis deionized water. […] The solution was then filtered through a 0.2 μm filter. […] Precipitate began to appear within 1 day from the Me-PEG-PLGA diblock copolymer system alone, while the solution containing the PLA oligomer maintained paclitaxel in solution and remained clear for more than 2 days.

[4] = Solution stability of paclitaxel in PLGA-PEG-PLGA triblock copolymer with or without PLA oligomer; format: physicochemical; settings: 40 mg paclitaxel, 2 ml water, 0.2 μm filtered
From the text: The solution stability enhancing properties of PLA oligomers are illustrated in this example. […] The solution was then filtered through a 0.2 μm filter. […] A precipitate appeared within 1 day with the PLGA-PEG-PLGA triblock copolymer system alone, while the solution containing the PLA oligomer maintained paclitaxel in solution and remained clear for more than 3 days.

Structure (SMILES)	reported solubility in water [1]	improvement of maximum concentration over the triblock copolymer alone ([2]; mixture of PLA oligomers and the triblock copolymer)	solubility ([2]; triblock copolymer solution of Example 1 (entry 1), without PLA oligomers)	time paclitaxel maintained in solution and remained clear ([3]; Me-PEG-PLGA diblock copolymer (600 mg) with PLA oligomer (75 mg))	time until precipitate began to appear ([3]; Me-PEG-PLGA diblock copolymer system alone (600 mg))	time paclitaxel maintained in solution and remained clear ([4]; PLGA-PEG-PLGA triblock copolymer (600 mg) with PLA oligomer (75 mg))	time until a precipitate appeared ([4]; PLGA-PEG-PLGA triblock copolymer system alone (600 mg))
C[C@@H]1[C@H](O)[C@@H](C)/C=C/C=C/C=C/C=C/C=C/C=C/C=C/[C@H](O[C@@H]2O[C@H](C)[C@@H](O)[C@H](N)[C@@H]2O)C[C@@H]2O[C@](O)(C[C@@H](O)C[C@@H](O)[C@H](O)CC[C@@H](O)C[C@@H](O)CC(=O)O[C@H]1C)C[C@H](O)[C@H]2C(=O)O [amphotericin B]	3 µg/mL	> 10 fold	150 µg/mL (≈ 162 µM)	–	–	–	–
CC(=O)O[C@H]1C(=O)[C@@]2(C)[C@H]([C@H](OC(=O)c3ccccc3)[C@]3(O)C[C@H](OC(=O)[C@H](O)[C@@H](NC(=O)c4ccccc4)c4ccccc4)C(C)=C1C3(C)C)[C@]1(OC(C)=O)CO[C@@H]1C[C@@H]2O [paclitaxel]	–	–	–	more than 2 days	≤ 1 days	more than 3 days	≤ 1 days
